In patent US20240246941A1, “SUBSTITUTED 4-(3-AMINOPROP-1-YL)AMINOQUINOLINE ANALOGS AS MODULATORS OF MELANOMA-ASSOCIATED ANTIGEN 11 UBIQUITIN LIGASE” (ST. JUDE CHILDREN'S RESEARCH HOSPITAL, INC., priority 2020, published 2024):

target: interaction between GST-MAGEA11 MHD and FAM-PCF11_4 peptide (MAGE-A11:PCF11) (Homo sapiens (Human), UniProt P43364); assay: TR-FRET dose response competition assay for disruption of MAGE-A11:PCF11 binding; details: Dose response TR-FRET screening of nine scaffold groups against MAGE-A11:PCF11; read-out: consensus IC50
Sequence (P43364 218-429): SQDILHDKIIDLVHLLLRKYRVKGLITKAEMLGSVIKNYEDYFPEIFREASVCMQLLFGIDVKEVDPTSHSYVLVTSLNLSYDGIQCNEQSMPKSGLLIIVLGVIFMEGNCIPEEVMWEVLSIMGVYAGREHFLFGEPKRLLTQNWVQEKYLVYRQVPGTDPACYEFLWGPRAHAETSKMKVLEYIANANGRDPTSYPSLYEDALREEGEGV
Description: TR-FRET Assays and High-throughput Screen. Terbium-anti-GST antibody, 1 M Tris pH 7.5 1 M MgCl2 and 1 M DTT were purchased from Invitrogen (Carlsbad, CA), BSA was purchased from Sigma (St. Louis, MO). Dimethyl sulfoxide (DMSO) was purchased from Fisher Scientific (Pittsburgh, PA). Black 384-well low volume plates and 384-well polypropylene compound plates were purchased from Corning Incorporated (Tewksbury, MA). The St. Jude FDA drug and Bioactive library (11,293 chemicals), Drug-like library (10,073 chemicals) and Lead-like library (10,041 chemicals) were custom assembled and purchased from commercial sources including Sigma, Microsource (Gaylordsville, CT), selleckchem (Houston, TX), ChemDiv (San Diego, CA), ChemBridge (San Diego, CA), Enamine (Monmouth Jct., NJ), and Life Chemicals (Niagara-on-the-Lake, ON, Canada). They were arrayed (10 mM in DMSO) in 384-well polypropylene compound plates with columns 1, 2, 13 and 14 empty which were reserved for controls.
The TR-FRET assay buffer with a formula of 50 mM Tris pH 7.5, 20 mM MgCl2, 0.1 mg/ml BSA and 1 mM DTT was freshly prepared before each experiment. All TR-FRET assays were performed in black 384-well plates with 20 μl/well assay volume in the TR-FRET assay buffer at room temperature (approximately 25° C.). All peptides or compounds were solubilized in DMSO. To test the competitive activity of peptides or compounds against the interaction between GST-MAGEA11 MHD and FAM-PCF11_4 peptide, 10 μl/well peptide or compound at specified concentration was dispensed into a black 384-well low volume plate, followed by 5 μl/well FAM-PCF11_4 (800 nM), 5 μl/well Tb-anti-GST (20 nM) and GST-MAGEA11 MHD (20 nM). The assay components in each well was then mixed by shaking the plate on an IKA MTS 2/4 digital microtiter plate shaker (IKA Works; Wilmington, NC, USA) at 900 RPM for 1 minute. The plate was further centrifuged in an Eppendorf 5810 centrifuge with an A-4-62 swing-bucket rotor (Eppendorf AG, Hamburg, Germany) at 201 g (1000 rpm) for 30 seconds. The plate was then incubated for 90 min with a lid to avoid light exposure to the assay components. After incubation, the fluorescent emission signals at 520 nm and 490 nm channels of individual wells were measured with a PHERAstar FS plate reader (BMG Labtech; Durham, NC, USA) by using a 340 nm excitation filter, 100 μs delay time, and 200 μs integration time. The TR-FRET fluorescence emission ratio (TR-FRET signal) for each well was presented as 10 000×520 nm/490 nm, which was used directly for curve fitting, or further converted to % Inhibition based on the respective positive and negative controls. The graphic software GraphPad Prism 4.81 (GraphPad Software; La Jolla, CA, USA) was used to generate curves and derive IC50 values of tested peptides or compounds, if applicable.
TR-FRET inhibitory activity characterization of a panel of PCF11 peptides against the interaction between GST-MAGEA11 MHD and FAM-PCF11_4 was performed as follows. In a 20 μl/well assay volume, dilutions of PCF11_1 to PCF11_8 peptides (concentrations ranged from 3.1 nM to 100 μM for peptides PCF11_4, PCF11_5, PCF11_6 and PCF11_8 in a 1-to-2 dilution pattern for 16 concentration levels, and ranged from 48.9 nM to 100 μM for peptides of PCF11_1, PCF11_2, PCF11_3 and PCF11_7 in a 1-to-2 dilution pattern for 12 concentration levels), 200 nM FAM-PCF11_4, 5 nM Tb-anti-GST and 5 nM GST-MAGEA11 were mixed together and incubated for 90 min before the TR-FRET signal for each well was measured. The final DMSO concentration was 1.1% (v/v). […] The signal of each peptide-treated well (Signalpeptide) was normalized to the positive and negative controls to derive % inhibition of the peptide at a specific concentration with equation 1. Where applicable, the % Inhibition data were fit into a Sigmoidal dose response equation to derive IC50 values.
TR-FRET screen for identifying MAGEA11 small molecule inhibitors was performed as follows.

`CCOc1ccc(NC2=C(Cl)C(=O)c3ccccc3C2=O)cc1` [SJ000122936-1] and `CCNC1=C(Cl)C(=O)c2ccccc2C1=O` [SJ000157082-1] are the same in IC50: 69.9 µM for the first, 69.9 µM for the second.

`CN(C)CCCNC(=O)c1ccc2[nH]c3ccccc3c2c1` [SJ000123281-1] and `CCn1c2ccccc2c2cc(CN3CCN(CCO)CC3)ccc21` [SJ000145592-1] are the same in IC50: 69.9 µM for the first, 69.9 µM for the second.

`COP(=O)(OC)c1nc(-c2ccccc2)oc1N1CCOCC1` [SJ000124835-1] and `CCOc1ccc(-c2nc(S(=O)(=O)c3ccccc3)c(N3CCOCC3)o2)cc1` [SJ000198209-1] are the same in IC50: 69.9 µM for the first, 69.9 µM for the second.

`CCOC(=O)COc1ccc(-c2nc3c(=O)n(C)c(=O)n(C)c3[nH]2)cc1OC` [SJ000140137-1] and `CCCOc1ccc(-c2nc3c(=O)n(C)c(=O)n(C)c3[nH]2)cc1` [SJ000205042-1] are the same in IC50: 69.9 µM for the first, 69.9 µM for the second.

`Cc1ccc(-c2nc(S(=O)(=O)c3ccc(Cl)cc3)c(N3CCOCC3)o2)cc1` [SJ000140851-1] and `Cc1ccc(S(=O)(=O)c2nc(-c3ccc(Cl)cc3)oc2N2CCOCC2)cc1` [SJ000230693-1] are the same in IC50: 69.9 µM for the first, 69.9 µM for the second.

`CCCNC1=C(Cl)C(=O)c2ccccc2C1=O` [SJ000141460-3] and `CNC1=C(Cl)C(=O)c2ccccc2C1=O` [SJ000141461-1] are the same in IC50: 69.9 µM for the first, 69.9 µM for the second.

`O=S(=O)(c1ccc(Cl)cc1)c1nc(-c2ccccc2Cl)oc1N1CCOCC1` [SJ000141574-1] and `O=S(=O)(c1ccc(Cl)cc1)c1nc(-c2ccccc2Br)oc1N1CCOCC1` [SJ000184129-1] are the same in IC50: 69.9 µM for the first, 69.9 µM for the second.

`CCN1CCN(Cc2ccc3c(c2)c2ccccc2n3CC)CC1` [SJ000142875-1] and `CCn1c2ccccc2c2cc(CN3CCN(C)CC3)ccc21` [SJ000142908-1] are the same in IC50: 69.9 µM for the first, 69.9 µM for the second.

First: CCOC(=O)N1CCN(Cc2ccc3c(c2)c2ccccc2n3CC)CC1 [SJ000147352-1]
Second: CCn1c2ccccc2c2cc(CN3CCN(S(=O)(=O)CC)CC3)ccc21 [SJ000168321-1]
The IC50 of the first is 2.4-fold lower: 29.5 µM for the first, 69.9 µM for the second.

Going from `CCC(CO)NC1=C(Cl)C(=O)c2ccccc2C1=O` (centres unmarked) [SJ000148678-1] to `CCC(COC(C)=O)NC1=C(Cl)C(=O)c2ccccc2C1=O` (centres unmarked) [SJ000149466-1], the IC50 falls from 69.9 µM to 17.2 µM (4.1-fold). The second is the more potent here.

`Cc1ccc(-c2nc(S(=O)(=O)c3ccccc3)c(N3CCOCC3)o2)cc1` [SJ000159484-1] and `O=S(=O)(c1ccccc1)c1nc(-c2ccc(Cl)cc2)oc1N1CCOCC1` [SJ000230691-1] are the same in IC50: 69.9 µM for the first, 69.9 µM for the second.

First: CCCS(=O)(=O)N1CCN(Cc2ccc3c(c2)c2ccccc2n3CC)CC1 [SJ000167951-1]
Second: CCn1c2ccccc2c2cc(CN3CCN(S(C)(=O)=O)CC3)ccc21 [SJ000168261-1]
The IC50 of the first is 3.6-fold lower: 19.2 µM for the first, 69.9 µM for the second. The first is the more potent here.

Going from `Cc1ccc(S(=O)(=O)c2nc(-c3ccccc3Br)oc2N2CCOCC2)cc1` [SJ000185415-1] to `Cc1ccc(S(=O)(=O)c2nc(-c3ccccc3Cl)oc2N2CCOCC2)cc1` [SJ000230856-1], the IC50 falls from 69.9 µM to 4.34 µM (16-fold).

`Cc1cc(C)nc(Nc2nc(N)c3ccccc3n2)n1` [SJ000189299-1] and `Cc1ccc(C)c(Nc2nc(N)c3ccccc3n2)c1` [SJ000192944-1] are the same in IC50: 69.9 µM for the first, 69.9 µM for the second.

`Cc1ccccc1Nc1nc(N)c2ccccc2n1` [SJ000192476-1] and `Nc1nc(Nc2ccccc2O)nc2ccccc12` [SJ000192933-1] are the same in IC50: 69.9 µM for the first, 69.9 µM for the second.

`COc1ccccc1Nc1nc(N)c2ccccc2n1` [SJ000192505-1] and `COc1ccc(Cl)cc1Nc1nc(N)c2ccccc2n1` [SJ000200999-1] are the same in IC50: 69.9 µM for the first, 69.9 µM for the second.

`Cc1ccc(Nc2nc(N)c3ccccc3n2)cc1Cl` [SJ000201287-1] and `Nc1nc(Nc2ccc(Cl)c(Cl)c2)nc2ccccc12` [SJ000201376-1] are the same in IC50: 69.9 µM for the first, 69.9 µM for the second.

`COc1ccc(C)cc1Nc1nc(N)c2ccccc2n1` [SJ000201566-1] and `COc1ccc(OC)c(Nc2nc(N)c3ccccc3n2)c1` [SJ000202008-1] are the same in IC50: 69.9 µM for the first, 69.9 µM for the second.

`Cc1ccc(Nc2nc(N)c3ccccc3n2)cc1C` [SJ000202381-1] and `CCN1CCN(c2nc(N)c3ccccc3n2)CC1` [SJ000202571-1] are the same in IC50: 69.9 µM for the first, 69.9 µM for the second.

Compared with `CC(C)c1ccc(-c2nc3c(=O)n(C)c(=O)n(C)c3[nH]2)cc1` [SJ000203904-1], `Cn1c(=O)c2nc(-c3ccc(S(=O)(=O)O)cc3)[nH]c2n(C)c1=O` [SJ000287642-4] is 3.2-fold lower in IC50: 69.9 µM for the first, 21.8 µM for the second.

First: O=S(=O)(c1ccc(Cl)cc1)c1nc(-c2ccc(Cl)cc2)oc1N1CCOCC1 [SJ000230692-1]
Second: Cc1ccc(S(=O)(=O)c2nc(-c3ccc(F)cc3)oc2N2CCOCC2)cc1 [SJ000230854-1]
The IC50 of the first is 6-fold higher: 69.9 µM for the first, 11.7 µM for the second.

`Cc1ccc(S(=O)(=O)c2nc(-c3ccc(Br)cc3)oc2N2CCOCC2)cc1` [SJ000230855-1] and `COc1ccc(-c2nc(S(=O)(=O)c3ccc(C)cc3)c(N3CCOCC3)o2)cc1` [SJ000245271-1] are the same in IC50: 69.9 µM for the first, 69.9 µM for the second.

`O=C1C(Cl)=C(N2CCOCC2)C(=O)c2ccccc21` [SJ000242799-1] and `CC(NC1=C(Cl)C(=O)c2ccccc2C1=O)C(=O)O` (centres unmarked) [SJ000244608-1] are the same in IC50: 69.9 µM for the first, 69.9 µM for the second.

First: O=S(=O)(c1ccccc1)c1nc(-c2ccc(Br)cc2)oc1N1CCOCC1 [SJ000244320-1]
Second: CS(=O)(=O)c1ccc(C2=C(c3ccccc3)C(=O)OC2)cc1 [SJ000285362-5]
The IC50 of the first is 7.8-fold lower: 8.63 µM for the first, 67.6 µM for the second.

Going from `CC(C)C(NC1=C(Cl)C(=O)c2ccccc2C1=O)C(=O)O` (centres unmarked) [SJ000244609-2] to `Cn1c(=O)c2nc(-c3ccccc3)[nH]c2n(C)c1=O` [SJ000288094-2], the IC50 falls from 587 µM to 69.9 µM (8.4-fold).

First: COc1cc2nc(N(C)CCCNC(=O)C3CCCO3)nc(N)c2cc1OC (centres unmarked) [SJ000286094-9]
Second: COc1cc2nc(N3CCN(C(=O)OCc4ccccc4)C(C(=O)NC(C)(C)C)C3)nc(N)c2cc1OC (centres unmarked) [SJ000288233-2]
The IC50 of the first is 1.9-fold lower: 36.2 µM for the first, 69.9 µM for the second. The first is the more potent here.

`C=CCn1c(=O)c2c(nc(-c3ccc(S(=O)(=O)O)cc3)n2C)n(C)c1=O` [SJ000287614-4] and `CCCn1c(=O)c2nc(-c3ccc(S(=O)(=O)O)cc3)[nH]c2n(CCC)c1=O` [SJ000287650-2] are within 1.5-fold of each other in IC50: 75.1 µM for the first, 69.9 µM for the second.

`CCCn1c(=O)c2nc(-c3ccc(OCC(=O)Nc4ccc(C#N)cc4)cc3)[nH]c2n(CCC)c1=O` [SJ000287997-2] and `CCCn1c(=O)c2nc(-c3ccc(OCC(=O)NCCN)cc3)[nH]c2n(CCC)c1=O` [SJ000288288-2] are the same in IC50: 69.9 µM for the first, 69.9 µM for the second.

`Cn1c2ccccc2c2cc(C3Nc4ccccc4C(=O)N3Cc3ccccc3)ccc21` (centres unmarked) [SJ000288408-1] and `COc1ccc(C2Nc3ccccc3C(=O)N2Cc2ccccc2)cc1Cn1nc(C)c([N+](=O)[O-])c1C` (centres unmarked) [SJ000288419-1] are the same in IC50: 69.9 µM for the first, 69.9 µM for the second.

With `CCCN1C(=O)c2ccccc2NC1c1cccc(F)c1` (centres unmarked) [SJ000288416-1] the IC50 was 69.9 µM.

same assay, conditions: Table 8, representative compounds; read-out: TR-FRET IC50

`COc1c2ccoc2nc2c(OC)c(OCC(O)C(C)O)ccc12` (centres unmarked) [SJ000121402] and `COc1ccc(OC)c2c(O)cc(C)nc12` [SJ000284975] cannot be ordered by IC50: over 69.9 µM for the first, over 69.9 µM for the second.

`COc1ccc(OC)c2c(O)c(CN3CCCCC3C)c(C)nc12` (centres unmarked) [SJ000280708] and `CC[C@@]1(O)C(=O)OCc2c1cc1n(c2=O)Cc2cc3ccccc3nc2-1` [SJ000285410] cannot be ordered by IC50: over 69.9 µM for the first, over 55.2 µM for the second.

First: Nc1c2ccccc2nc2ccccc12 [SJ000285450]
Second: COc1cc(NC(C)CCCN)c2ncccc2c1 (centres unmarked) [SJ000285544]
The IC50 of the first is higher: over 75.5 µM for the first, 19 µM for the second. The second is the more potent here.
